The term Ki denotes a dissociation constant, usually derived from enzyme kinetics or from competition with a known ligand. A word on the IC50: it is the midpoint of a concentration-inhibition curve.

The target in experiment [1] is CDK4/Cyclin D1 (Homo sapiens (Human), UniProt P11802). As to the kind of experiment: CDK4/Cyclin D1 mobility shift assay. In kind it is biochemical. The note with it: activated CDK4/Cyclin D1, 3.5 mM ATP, Morrison fit; read-out: CDK4D1 Ki.
For experiment [2], the target named is CDK6/Cyclin D3 (Homo sapiens (Human), UniProt Q00534). As to the kind of experiment: CDK6/Cyclin D3 mobility shift assay. In kind it is biochemical. The note with it: activated CDK6/Cyclin D3, 3.5 mM ATP, Morrison fit; read-out: CDK6_D3 Ki.
Experiment [3] addresses CDK4 (Homo sapiens (Human), UniProt P11802). The experiment is described as follows: Phospho-Serine 795 Rb ELISA assay in JEKO-1 cells. Type of experiment: cell-based. Particulars: overnight treatment, phospho-Rb S795, read-out: CDK4 pRB S795 ELISA JEKO-1 cells IC50. For orientation: ELISA stands for enzyme-linked immunosorbent assay.
The target of experiment [4] is CDK6 (Homo sapiens (Human), UniProt Q00534). The experiment is described as follows: Phospho-Serine 795 Rb ELISA assay in MV4-11 cells. In kind it is cell-based. The note with it: overnight treatment, phospho-Rb S795, read-out: CDK6 pRB S795 ELISA MV4-11 cells IC50.
Sequence of CDK6 (Q00534 whole entry): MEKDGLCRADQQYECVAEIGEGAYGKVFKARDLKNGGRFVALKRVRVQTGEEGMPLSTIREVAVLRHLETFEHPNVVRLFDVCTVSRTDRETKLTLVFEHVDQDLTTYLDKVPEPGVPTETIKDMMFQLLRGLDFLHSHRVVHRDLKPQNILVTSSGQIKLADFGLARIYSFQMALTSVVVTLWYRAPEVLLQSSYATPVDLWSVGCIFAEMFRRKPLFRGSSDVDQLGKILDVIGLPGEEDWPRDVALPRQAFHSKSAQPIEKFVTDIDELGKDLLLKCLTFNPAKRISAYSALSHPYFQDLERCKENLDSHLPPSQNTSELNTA
Sequence of CDK6 (P30281 whole entry partner): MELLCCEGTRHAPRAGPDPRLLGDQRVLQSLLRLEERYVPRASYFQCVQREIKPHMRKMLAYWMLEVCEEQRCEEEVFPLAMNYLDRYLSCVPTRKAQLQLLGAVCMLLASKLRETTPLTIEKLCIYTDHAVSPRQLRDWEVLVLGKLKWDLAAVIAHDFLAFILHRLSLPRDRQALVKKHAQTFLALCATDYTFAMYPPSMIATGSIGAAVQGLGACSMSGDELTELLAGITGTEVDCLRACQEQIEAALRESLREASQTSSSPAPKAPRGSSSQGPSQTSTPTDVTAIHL

Sequence of CDK4 (P11802 2-303): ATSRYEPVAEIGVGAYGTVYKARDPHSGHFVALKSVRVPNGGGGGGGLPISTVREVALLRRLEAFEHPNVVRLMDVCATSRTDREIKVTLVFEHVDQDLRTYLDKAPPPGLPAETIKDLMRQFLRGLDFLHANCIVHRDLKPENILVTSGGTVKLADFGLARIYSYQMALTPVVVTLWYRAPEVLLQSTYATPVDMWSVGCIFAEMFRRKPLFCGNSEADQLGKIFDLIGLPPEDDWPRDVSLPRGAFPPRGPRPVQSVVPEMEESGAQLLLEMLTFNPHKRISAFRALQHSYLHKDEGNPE
Sequence of CDK4 (P24385 whole entry partner): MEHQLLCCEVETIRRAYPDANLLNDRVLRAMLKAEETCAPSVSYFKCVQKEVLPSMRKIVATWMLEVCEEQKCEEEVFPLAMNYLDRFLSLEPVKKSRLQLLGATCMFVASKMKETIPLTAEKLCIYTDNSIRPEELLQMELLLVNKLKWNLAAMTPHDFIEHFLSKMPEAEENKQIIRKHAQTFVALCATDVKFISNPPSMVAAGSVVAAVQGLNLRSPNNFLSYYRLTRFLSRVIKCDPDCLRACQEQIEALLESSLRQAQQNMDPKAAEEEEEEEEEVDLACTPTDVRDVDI
Sequence of CDK4/Cyclin D1 (P11802 whole entry): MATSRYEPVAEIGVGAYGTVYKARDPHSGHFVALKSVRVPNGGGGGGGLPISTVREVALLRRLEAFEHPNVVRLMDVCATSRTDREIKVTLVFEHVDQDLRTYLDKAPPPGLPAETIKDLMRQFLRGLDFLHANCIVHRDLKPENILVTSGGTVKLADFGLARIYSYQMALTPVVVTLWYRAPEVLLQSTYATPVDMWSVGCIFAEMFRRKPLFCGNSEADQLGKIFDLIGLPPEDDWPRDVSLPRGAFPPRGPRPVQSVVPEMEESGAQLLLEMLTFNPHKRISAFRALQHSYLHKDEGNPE
Sequence of CDK4/Cyclin D1 (P24385 whole entry partner): as the sequence (P24385 whole entry partner) above
Sequence of CDK6/Cyclin D3 (Q00534 whole entry): as the sequence (Q00534 whole entry) above
Sequence of CDK6/Cyclin D3 (P30281 whole entry partner): as the sequence (P30281 whole entry partner) above

On to `Cc1nc2c(F)cc(-c3nc(N[C@@H]4CCN(S(C)(=O)=O)C[C@H]4O)ncc3Cl)cc2n1C1COC1` [Example A89, (3R,4R)-4-({5-chloro-4-[4-fluoro-2-methyl-1-(oxetan-3-yl)-1H-benzimidazol-6-yl]pyrimidin-2-yl}amino)-1-(methanesulfonyl)piperidin-3-ol], for which the inhibitory constant (Ki) in experiment [1] is 0.5 nM; in experiment [2], 12 nM. For the same compound, the IC50 in experiment [3] was found to be 118 nM; in experiment [4], 570 nM.

(Values after patent US10766884B2 (Pfizer Inc., priority 2018, dated 2020).)
